Data taken from US8211828B2 (priority 2007, dated 2012).

Tested on: Phytophthora infestans
Assay: microbe, parasite or virus in culture
Format: cell-based
Conditions: 168 h, read-out: Observed effect (%)

In order of falling inhibition of growth at 1 ppm:
1. Cc1nc2ncnn2c(N)c1CCC(C)CC(C)(C)C (stereo not shown) [7-3]  31%
2. CCCCCCCCc1c(CCC)nc2ncnn2c1N [7-9]  20%
3. Cn1cc(C(=O)Nc2ccccc2-c2cc(F)c(F)c(F)c2)c(CF)n1 [Compound 3-11, N-(3′,4′,5′-trifluorobiphenyl-2-yl)-3-fluoromethyl-1-methyl-1H-pyrazole-4-carboxamide]  7%
4. Cn1cc(C(=O)Nc2ccccc2-c2ccc(F)c(F)c2F)c(CF)n1 [Compound 3-14, N-(2′,3′,4′-trifluorobiphenyl-2-yl)-3-fluoromethyl-1-methyl-1H-pyrazole-4-carboxamide]  3%
5. Cn1cc(C(=O)Nc2ccccc2-c2ccc(F)c(F)c2F)c(C(F)(F)F)n1 [Compound 3-7, N-(2′,3′,4′-trifluorobiphenyl-2-yl)-3-trifluoromethyl-1-methyl-1H-pyrazole-4-carboxamide]  1%
6. Cn1cc(C(=O)Nc2ccccc2-c2cc(F)c(F)cc2F)c(C(F)F)n1 [Compound 3-10, N-(2′,4′,5′-trifluorobiphenyl-2-yl)-3-difluoromethyl-1-methyl-1H-pyrazole-4-carboxamide]  1%
7. COc1cc(-c2ccccc2NC(=O)c2cn(C)nc2C(F)(F)F)c(F)cc1Cl [Compound 3-1, N-(2′-fluoro-4′-chloro-5′-methoxybiphenyl-2-yl)-3-trifluoromethyl-1-methyl-1H-pyrazole-4-carboxamide]  0%
8. Cn1cc(C(=O)Nc2ccccc2-c2cc(F)c(F)c(F)c2)c(C(F)(F)F)n1 [Compound 3-3, N-(3′,4′,5′-trifluorobiphenyl-2-yl)-3-trifluoromethyl-1-methyl-1H-pyrazole-4-carboxamide]  0%
9. COc1cc(-c2ccccc2NC(=O)c2cn(C)nc2C(F)F)c(F)cc1Cl [Compound 3-6, N-(2′-fluoro-4′-chloro-5′-methoxybiphenyl-2-yl)-3-difluoromethyl-1-methyl-1H-pyrazole-4-carboxamide]  0%

In order of rising inhibition of growth at 4 ppm:
1. COc1cc(-c2ccccc2NC(=O)c2cn(C)nc2C(F)(F)F)c(F)cc1Cl [Compound 3-1, N-(2′-fluoro-4′-chloro-5′-methoxybiphenyl-2-yl)-3-trifluoromethyl-1-methyl-1H-pyrazole-4-carboxamide]  0%
2. Cn1cc(C(=O)Nc2ccccc2-c2cc(F)c(F)c(F)c2)c(C(F)(F)F)n1 [Compound 3-3, N-(3′,4′,5′-trifluorobiphenyl-2-yl)-3-trifluoromethyl-1-methyl-1H-pyrazole-4-carboxamide]  0%
3. COc1cc(-c2ccccc2NC(=O)c2cn(C)nc2C(F)F)c(F)cc1Cl [Compound 3-6, N-(2′-fluoro-4′-chloro-5′-methoxybiphenyl-2-yl)-3-difluoromethyl-1-methyl-1H-pyrazole-4-carboxamide]  3%
4. Cn1cc(C(=O)Nc2ccccc2-c2ccc(F)c(F)c2F)c(C(F)(F)F)n1 [Compound 3-7, N-(2′,3′,4′-trifluorobiphenyl-2-yl)-3-trifluoromethyl-1-methyl-1H-pyrazole-4-carboxamide]  4%
5. Cn1cc(C(=O)Nc2ccccc2-c2cc(F)c(F)cc2F)c(C(F)F)n1 [Compound 3-10, N-(2′,4′,5′-trifluorobiphenyl-2-yl)-3-difluoromethyl-1-methyl-1H-pyrazole-4-carboxamide]  6%
6. Cn1cc(C(=O)Nc2ccccc2-c2cc(F)c(F)c(F)c2)c(C(F)F)n1 [Compound 3-9, N-(3′,4′,5′-trifluorobiphenyl-2-yl)-3-difluoromethyl-1-methyl-1H-pyrazole-4-carboxamide]  9%
7. Cc1cc(-c2ccccc2NC(=O)c2cn(C)nc2C(F)F)c(F)cc1Cl [Compound 3-8, N-(2′-fluoro-4′-chloro-5′-methylbiphenyl-2-yl)-3-difluoromethyl-1-methyl-1H-pyrazole-4-carboxamide]  10%
8. Cn1cc(C(=O)Nc2ccccc2-c2ccc(F)c(F)c2F)c(CF)n1 [Compound 3-14, N-(2′,3′,4′-trifluorobiphenyl-2-yl)-3-fluoromethyl-1-methyl-1H-pyrazole-4-carboxamide]  11%
9. CCCCCCCCc1c(C)nc2ncnn2c1N [7-4]  45%
10. CCCCCCCCc1c(CCC)nc2ncnn2c1N [7-9]  58%
11. CCCCCCCCc1c(CC)nc2nc(N)nn2c1N [7-5]  73%

In order of falling inhibition of growth at 0.25 ppm:
1. CCCCCCCCc1c(CC)nc2nc(N)nn2c1N [7-5]  27%
2. Cn1cc(C(=O)Nc2ccccc2-c2cc(F)c(F)c(F)c2)c(C(F)(F)F)n1 [Compound 3-3, N-(3′,4′,5′-trifluorobiphenyl-2-yl)-3-trifluoromethyl-1-methyl-1H-pyrazole-4-carboxamide]  0%

In order of rising inhibition of growth at 16 ppm:
1. COc1cc(-c2ccccc2NC(=O)c2cn(C)nc2C(F)(F)F)c(F)cc1Cl [Compound 3-1, N-(2′-fluoro-4′-chloro-5′-methoxybiphenyl-2-yl)-3-trifluoromethyl-1-methyl-1H-pyrazole-4-carboxamide]  4%
2. Cn1cc(C(=O)Nc2ccccc2-c2cc(F)c(F)c(F)c2)c(CF)n1 [Compound 3-11, N-(3′,4′,5′-trifluorobiphenyl-2-yl)-3-fluoromethyl-1-methyl-1H-pyrazole-4-carboxamide]  9%
3. COc1cc(-c2ccccc2NC(=O)c2cn(C)nc2C(F)F)c(F)cc1Cl [Compound 3-6, N-(2′-fluoro-4′-chloro-5′-methoxybiphenyl-2-yl)-3-difluoromethyl-1-methyl-1H-pyrazole-4-carboxamide]  18%
4. Cn1cc(C(=O)Nc2ccccc2-c2ccc(F)c(F)c2F)c(CF)n1 [Compound 3-14, N-(2′,3′,4′-trifluorobiphenyl-2-yl)-3-fluoromethyl-1-methyl-1H-pyrazole-4-carboxamide]  18%
5. Cc1cc(-c2ccccc2NC(=O)c2cn(C)nc2C(F)F)c(F)cc1Cl [Compound 3-8, N-(2′-fluoro-4′-chloro-5′-methylbiphenyl-2-yl)-3-difluoromethyl-1-methyl-1H-pyrazole-4-carboxamide]  20%
6. CC(CCc1c(C(F)(F)F)nc2ncnn2c1N)CC(C)(C)C (stereo not shown) [7-12]  66%

Tested on: Puccinia recondita
Assay: Curative activity against brown rust of wheat caused by Puccinia recondita (greenhouse)
Format: in vivo
Conditions: single active compound, 0.25 ppm, control 90% infection
Procedure: The expected efficacies of active compound combinations were determined using Colby's formula (Colby, S. R. “Calculating synergistic and antagonistic responses of herbicide combinations”, Weeds, 15, 20-22, 1967) and compared with the observed efficacies. Colby's formula: E=x+y−x·y/100 • E expected efficacy, expressed in % of the untreated control, when using the mixture of the active compounds A and B at the concentrations a and b; • x efficacy, expressed in % of the untreated control, when using the active compound A at the concentration a; • y efficacy, expressed in % of the untreated control, when using the active compound B at the concentration b. Micro Tests
The active compounds were separately or jointly prepared as a stock solution comprising 25 mg of active compound which was made up to 10 ml using a mixture of acetone and/or dimethyl sulfoxide and the emulsifier Uniperol® EL (wetting agent having emulsifying and dispersing action based on ethoxylated alkylphenols) in a volume ratio of solvent/emulsifier of 99 to 1. The mixture was then made up with water to 100 ml. This stock solution was diluted with the solvent/emulsifier/water mixture described to the concentration of active compound stated below.
Leaves of potted wheat seedlings were inoculated with a spore suspension of brown rust (Puccinia recondita). The pots were then placed in a chamber with high atmospheric humidity (90 to 95%) and 20 to 22° C. for 24 hours. During this time, the spores germinated and the germ tubes penetrated into the leaf tissue. The next day, the infected plants were sprayed to runoff point with the active compound solution described above at the active compound concentration stated below. After the spray coating had dried on, the test plants were cultivated in a greenhouse at temperatures between 20 and 22° C. and at 65 to 70% relative atmospheric humidity for 7 days. The extent of the rust fungus development on the leaves was then determined.
(§1) The visually determined percentages of infected leaf areas were converted into efficacies in % of the untreated control.
The efficacy (E) is calculated as follows using Abbot's formula: Abbot's formula: E=(1−α/β)·100 • α corresponds to the fungicidal infection of the treated plants in % and • β corresponds to the fungicidal infection of the untreated (control) plants in %
An efficacy of 0 means that the infection level of the treated plants corresponds to that of the untreated control plants; an efficacy of 100 means that the treated plants were not infected.

For `Cn1cc(C(=O)Nc2ccccc2-c2cc(F)c(F)c(F)c2)c(C(F)F)n1` [Compound 3-9, N-(3′,4′,5′-trifluorobiphenyl-2-yl)-3-difluoromethyl-1-methyl-1H-pyrazole-4-carboxamide], the “Observed effect (%)” value was 0%.

Same assay, conditions: single active compound, 1 ppm, control 90% infection

In order of rising “Observed effect (%)” value:
1. CCCCCCCCc1c(CC)nc2nc(N)nn2c1N [7-5]  0%
2. CCCCCCCCc1nc2ncnn2c(N)c1CC [7-6]  0%
3. CCc1nc2ncnn2c(N)c1CCC(C)CC(C)(C)C (stereo not shown) [7-8]  0%

Tested on: Puccinia recondita
Assay: Protective activity against Puccinia recondita on wheat (brown rust of wheat) (greenhouse)
Format: in vivo
Conditions: single active compound, 0.25 ppm, control 80% infection
Procedure: The expected efficacies of active compound combinations were determined using Colby's formula (Colby, S. R. “Calculating synergistic and antagonistic responses of herbicide combinations”, Weeds, 15, 20-22, 1967) and compared with the observed efficacies. Colby's formula: E=x+y−x·y/100 • E expected efficacy, expressed in % of the untreated control, when using the mixture of the active compounds A and B at the concentrations a and b; • x efficacy, expressed in % of the untreated control, when using the active compound A at the concentration a; • y efficacy, expressed in % of the untreated control, when using the active compound B at the concentration b. Micro Tests […]
as §1
The efficacy (E) is calculated as follows using Abbot's formula: Abbot's formula: E=(1−α/β)·100 • α corresponds to the fungicidal infection of the treated plants in % and • β corresponds to the fungicidal infection of the untreated (control) plants in % […]
Leaves of potted wheat seedlings were sprayed to runoff point with an aqueous suspension having the active compound concentration stated below. […] The extent of the rust fungus development on the leaves was then determined visually.

For `Cn1cc(C(=O)Nc2ccccc2-c2cc(F)c(F)c(F)c2)c(C(F)F)n1` [Compound 3-9, N-(3′,4′,5′-trifluorobiphenyl-2-yl)-3-difluoromethyl-1-methyl-1H-pyrazole-4-carboxamide], the “Observed effect (%)” value was 50%.

Same assay, conditions: single active compound, 1 ppm, control 80% infection

For `Cc1nc2ncnn2c(N)c1-c1ccc(Cl)c(Cl)c1` [7-1], the “Observed effect (%)” value was 0%.
